# Reference: patent US20210108198A1, “APPLICATION OF COMPOUND OR TRADITIONAL CHINESE MEDICINE EXTRACT IN PREPARATION OF NUCLEIC ACID DELIVERY AGENT AND RELATED PRODUCTS THEREOF” (INSTITUTE OF BASIC MEDICAL SCIENCES CHINESE ACADEMY OF …, priority 2017, published 2021)
# Entries after “also recorded” stand apart in the source; their conditions may differ.
# Columns and labels:
# A549 cells [1] = assay: Confocal fluorescence microscopy of nucleic acid delivered by lipid in cells; type: cell-based, human; conditions: 4 μl lipid, boiling method; 6 hours of co-incubation
# Description: Experimental materials: A549 cells (purchased from the Cell Center of the Chinese Academy of Medical Sciences), PGY-sRNA-6-Cy3 (purchased from Ribobio Biotechnology Co., Ltd.), lipid No. 41, Zeiss LSM780 (purchased from Zeiss, Germany), Alexa Fluor® 488 phalloidin (purchased from Invitrogen, USA), DAPI (purchased from Invitrogen, USA), paraformaldehyde (purchased from sigma, USA).
# (§1) Experimental methods: PGY-sRNA-6-FAM was dissolved in 100 μl water, mixed with 4 μl lipid, and prepared by the boiling method. Then the mixture was dropped into A549 cells, and after 6 hours of co-incubation, the samples were washed three times with PBS, fixed with 4% paraformaldehyde, washed three times with PBS, stained with Alexa Fluor® 488 phalloidin for 30 min, washed 3 times with PBS, and stained with DAPI for 5 min, washed with PBS, and then sealed.
# as §1, with “method:” for “methods:”, “water, and” for “water,”, “by” for “by the”, “Then,” for “Then”, “PBS washed,” for “washed with PBS,”
# [2] = In vivo delivery of single-stranded sRNA by single lipid via gavage (blood, stomach, small intestine, liver); design: species or system C57 mice; conditions: 10 μl lipid, heating method
# Text: Tissues sampled: live/stomach/small intestine.
# MRC-5 cell = assay: RT-qPCR detection of nucleic acid delivered by lipid into MRC-5 cells; type: cell-based; conditions: RNA 100 nM
# Description: 3.1 NCI-N87 cell (gastric cancer cell), MRC-5 cell (lung fibroblast), A549 cell (lung cancer cell) were cultured to logarithmic growth phase, and then plated to a six-well plate at cell density of 1×10^6/2 mL medium/well; MRC-5 cell was cultured in Eagle's MEM medium (MEM, Gibco); A549 cell was cultured in Ham's F-12 medium (HyClone); NCI-N87 cell was cultured in RPMI-1640 medium (HyClone); followed by incubation overnight at 37° C., and the follow-up experiments were performed after the cells were attached to the walls.
# 3.3 After co-incubation with the small RNA for 3 hours, the cells were washed 2-3 times with PBS. The cells were harvested with TRIzol lysis buffer, and the total RNA was extracted. The abundance of small RNA that entered cells was detected by RT-qPCR, and the localization of RNA was detected by fluorescence in situ hybridization; protocols of each detection method were as follows:
# 3.3.2 RT-qPCR Detection of Small RNA (SYBR Green Dye Method)
# The stem-loop primer used in the reverse transcription process was synthesized by Beijing Tsingke Biotechnology Co., Ltd. (U6 RT primer: […] ATG (SEQ ID NO: 21); HJT-sRNA-m7 RT stem-loop primer: […] AA (SEQ ID NO: 22)).
# Both the forward and reverse primers of the amplification reaction were designed and synthesized by Beijing Tsingke Biotechnology Co., Ltd. (U6 F Primer: […] (SEQ ID NO: 23), U6 R Primer: […] (SEQ ID NO: 24), HJT-sRNA-m7 F Primer: […] (SEQ ID NO: 25), HJT-sRNA-m7 R Primer: […] (SEQ ID NO: 26)).
# 3) The relative expression level was calculated by 2-ΔCt method.
# 3.1.3 After co-incubation with cells for 12-24 hours, the cells were washed twice with PBS. The cells were harvested with TRIzol lysis buffer (purchased from Sigma-Aldrich), and total RNA was extracted.
# A549 cells [3] = assay: Digital PCR (ddPCR) detection of the efficiency of nucleic acid delivery by lipid; type: cell-based, human
structure (smiles),measurement,setting,value
"CCCCCCCCCCCCCCCCCCC[C@@H](O)[C@@H](N)CO [No. 41, Sphinganine (d22:0)]",entry of PGY-sRNA-6-Cy3 observed under the confocal microscopy,A549 cells [1],could effectively deliver double-stranded nucleic acid into A549 cells
same,entry of single-stranded small RNA into mouse blood (RT-qPCR),"[2]; 1 nmol each sRNA (PGY-sRNA-23/-26/-32), 6 hours or 12 hours after administration","could promote the entry of small RNA into the blood, protecting it from degradation in the blood; also recorded: could effectively deliver sRNA single-stranded nucleic acid into the mouse blood via oral administration to protect sRNA from degradation; also recorded: the delivery effect was better than POPC and Lipofectamine RNAiMAX"
same,entry of single-stranded small RNA into mouse stomach (RT-qPCR),"[2]; 1 nmol each sRNA, FIG. 109","could promote the entry of small RNA into the stomach cells, protecting it from degradation in the stomach; also recorded: could effectively deliver sRNA single-stranded nucleic acid into the mouse stomach via oral administration to protect sRNA from degradation"
same,entry of single-stranded small RNA into mouse small intestine (RT-qPCR),"[2]; 1 nmol each sRNA, FIG. 110","could promote the entry of small RNA into small intestinal cells, protecting it from degradation in the small intestine; also recorded: could effectively deliver sRNA single-stranded nucleic acid into the mouse small intestine via oral administration to protect sRNA from degradation"
same,entry of single-stranded small RNA into mouse liver (RT-qPCR),"[2]; 1 nmol each sRNA, FIG. 111","could promote the entry of small RNA into the liver, protecting it from degradation in the liver; also recorded: could effectively deliver sRNA single-stranded nucleic acid into the mouse liver via oral administration to protect sRNA from degradation"
same,delivery of double-stranded HJT-sRNA-m7 by single lipid (real-time PCR),MRC-5 cell; boiling (heating) method,delivered HJT-sRNA-m7 double-stranded RNA into MRC-5 cells
same,delivery of single-stranded HJT-sRNA-m7 by single lipid (real-time PCR),"MRC-5 cell; boiling (heating) method, 12 hours (No. 37: 3 hours)",delivered HJT-sRNA-m7 single-stranded RNA into A549 and MRC-5 cells
same,delivery of double-stranded HJT-sRNA-m7 by single lipid (real-time PCR),MRC-5 cell; reverse evaporation method,delivered HJT-sRNA-m7 double-stranded RNA into MRC-5 cells; also recorded: significantly higher than that of RNAiMAX
same,delivery of HJT-sRNA-m7 dsRNA (ddPCR),"A549 cells [3]; boiling method, 6 hours",could effectively deliver HJT-sRNA-m7 dsRNA into A549 cells; also recorded: the boiling method had better effects than reverse evaporation method
same,delivery of HJT-sRNA-m7 dsRNA (ddPCR),"A549 cells [3]; reverse evaporation method, 6 hours (No. 39: 6 hours, 12 hours)",could effectively deliver HJT-sRNA-m7 dsRNA into A549 cells
